US6211209A, “Method of inhibiting connective tissue degradation” (Warner-Lambert Company, priority 1998, dated 2001)

Columns and labels:
Type in all cases: cell-based
72 kDa gelatinase = test: Gelatin zymography of bovine nasal cartilage conditioned media: expression of 72 kDa gelatinase; settings: various concentrations, FIG. 1
Experimental: (§1) To evaluate the effects of the compounds of the present invention on the expression of 72 kDa and 92 kDa gelatinases, samples obtained from the bovine nasal cartilage study (described above) were subjected to gelatin zymography.
(§2) Separating gels (8%) were made by combining 400 μL gelatin (25 mg/mL) with: 2.5 mL Tris (1.5 M); 100 μL SDS (10%); 2.6 mL acrylamide (30%); 10 μL TEMED; 4.6 mL dH2 O; 100 μL ammonium persulfate (10%). Stacking gels (4.5%) were formed by combining: 2.5 mL Tris (0.5 M); 100 μL SDS (10%); 1.5 mL acrylamide (30%); 10 μL TEMED; 5.8 mL dH2 O; 100 μL ammonium persulfate (10%).
(§3) Bovine nasal cartilage conditioned media was diluted (1:15) using sample buffer 1X (2% SDS, 15% glycerol, 0.01% bromophenol blue, 0.25M Trizma Base, pH 6.8). Thirty microliters of each of the diluted samples and molecular weight standards were subjected to electrophoresis at 4° C. under constant current conditions (20 mA of current/gel) using Tris/Glycine running buffer (0.5 M Trizma Base, pH 8.8 using glycine, 1% SDS) that was diluted 1:20 before use.
After completion of the electrophoretic procedure, the gel was first washed twice for 15 minutes in 2.5% Triton X-100. The gel was then rinsed with the gel incubation buffer (0.05 M Tris, pH 8.2, 0.005 M CaCl2, 0.5 μM ZnCl2) and incubated overnight in this buffer at 37° C. […]

92 kDa gelatinase = test: Gelatin zymography of bovine nasal cartilage conditioned media: expression of 92 kDa gelatinase
Experimental: as §1, §2, §3
After completion of the electrophoretic procedure, the gel was first washed twice for 15 minutes in 2.5% Triton X-100. The gel was then rinsed with the gel incubation buffer (0.05 M Tris, pH 8.2, 0.005 M CaCl2, 0.5 μM ZnCl2) and incubated overnight in this buffer at 37° C. After the incubation period, the gel was stained for 30 minutes in 0.125% Coomassie and destained using 10% methanol/5% acetic acid destaining solution.

[1] = test system: human articular cartilage; test: Human articular cartilage assay: IL-1α-induced proteoglycan loss from osteoarthritic cartilage; settings: for % Proteoglycan Release: 30 μM, with IL-1α, mean ± SE
Excerpt: Human articular cartilage was obtained from St. Joseph Hospital in Ypsilanti, Mich.; cell culture reagents from Gibco (Grand Island, N.Y.); human recombinant Interleukin-1α (IL1α) from Genzyme (Cambridge, Mass.); DMB from Polysciences (Warrington, Pa.); Falcon 24 well flat-bottom tissue culture plates from Becton Dickinson (Lincoln Park, N.Y.); Papain from Sigma (P-3125, St. Louis, Mo.); high purity dimethyl sulfoxide from Burdic & Jackson (081-1, Distributed by Baxter Healthcare, McGraw Park, Ill.); Sarstedt vials for 96-vial aluminum racks (Sarstedt, Newton, N.C.); Cetus Pro/Pette (Perkin Elmer, Norwalk, Conn.); Biomek 1000 (Beckman, Fullerton, Calif.)
The assay was performed in two phases. The cartilage pieces were first incubated with IL-1α in the presence of compound. The amount of proteoglycan released was then quantified by measuring chondroitin sulfate present in the media using the 1,9-Dimethylmethylene Blue Assay (DMB).
The articular cartilage used in this study was obtained from osteoarthritis patients undergoing total knee or hip replacment surgery. The ages of the patients ranged from 50 to 70 years. To establish cartilage organ cultures, uniform cartilage slices measuring 11 mm×11 mm were dissected from the underlying bone using a #20 scalpel blade and placed in isotonic saline. The cartilage slices were washed in Gey's balanced salt solution and placed (one piece/well) in Falcon 24 well flat-bottom tissue culture plates (Becton Dickinson, Lincoln Park, N.J.). The cartilage organ cultures were maintained in complete Ham's F-12 (supplemented with 10% fetal calf serum, 6.5 mg/mL Hepes, 58.5 μg/mL glutamine, 200 μg/mL MgSO4, 100 units/mL Pencillin G sodium, 100 μg/mL streptomycin sulfate, and 0.25 μg/mL amphotericin B) at 37° C. in a humidified atmosphere of 95% air and 5% CO2. The cartilage cultures were allowed to equilibrate in this medium for 4 to 5 days. Just before starting the experiment, the serum-containing spent medium was removed and cartilage cultures rinsed with 1 mL F-12 Nutrient Mixture (without phenol red) in order to remove residual FCS. Each treatment group was done in triplicate. […] All the media removed from cultures was collected and analyzed using the 1,9 DMB assay. At the end of experimental period, cartilage pieces were digested with papain and analysed using the 1,9 DMB assay.
The ability of a compound to inhibit proteoglycan release from cartilage pieces was quantified by measuring chondroitin sulfate. […] This color change was measured using a Titertek Multiscan MCC 340 plate reader at 540 nm. […] It was necessary to dilute (1:5, 1:10) the medium before a DMB assay was performed by adding 10 μL of collected media to 290 μL DMB (16 mg dye/L of 0.1 M formate buffer, pH 3.5, containing 5 mL ethanol) and reading at 540 nm. […]

With `S=c1[nH]nc(-c2ccccc2Nc2ccccc2)o1` [Compound 1, 5-(2-Phenylamino-phenyl)-3H-[1,3,4]oxadiazole-2-thione] the “effect on expression of 72 kDa gelatinase” value (72 kDa gelatinase) was “no effect on expression of 72 kDa gelatinase”, the “inhibiting expression of IL-1β-induced 92 kDa gelatinase” value (92 kDa gelatinase; various concentrations, IL-1β-induced, FIG. 1) was “effective in inhibiting expression of IL-1β-induced 92 kDa gelatinase in a dose-dependent manner” and the “specificity of effects (92 kDa versus 72 kDa gelatinase)” value (92 kDa gelatinase; versus 72 kDa gelatinase) was “specific to 92 kDa”. The “% Proteoglycan Release” value ([1]; 48 hours, n = 3 (control 3.7, IL-1α 9.0)) was 4.0 ± 0.2%, the “% Proteoglycan Release” value ([1]; 96 hours, n = 3 (control 5.7, IL-1α 14.4)) was 7.4 ± 0.4% and the “% Proteoglycan Release” value ([1]; 144 hours, n = 3 (control 7.0, IL-1α 16.9)) was 10.0 ± 0.8%. For the same molecule, the inhibition at 30 µM ([1]; over the course of the experiment, human osteoarthritic cartilage) was greater than 70%.
